ChEMBL document CHEMBL3046438, “Synthesis and Cytotoxic Evaluation of 1,2,3-Trisubstituted 2-(2-Oxoalkyl)-2,3-dihydrobenzimidazoles” (Med Chem Res, 2005)

How the values were obtained:
[1] = Cytotoxicity against Homo sapiens (human) FL cells assessed as cell viability at 10^-4 M after 24 hr by trypan blue exclusion assay relative to control; type: cell-based; settings: read-out: Activity
[2] = tested on: A2058; assay: Cytotoxicity against Homo sapiens (human) A2058 cells assessed as cell viability at 10^-4 M after 96 hr by trypan blue exclusion assay relative to control; type: functional; settings: A2058, 96 h, read-out: Activity
[3] = tested on: RD; assay: Cytotoxicity against Homo sapiens (human) RD cells assessed as cell viability at 10^-4 M after 48 hr by trypan blue exclusion assay relative to control; type: functional; settings: read-out: Activity
[4] = tested on: A2058; assay: Cytotoxicity against Homo sapiens (human) A2058 cells assessed as cell viability at 10^-4 M after 72 hr by trypan blue exclusion assay relative to control; type: functional; settings: A2058, 72 h, read-out: Activity
[5] = tested on: RD; assay: Cytotoxicity against Homo sapiens (human) RD cells assessed as cell viability at 10^-4 M after 96 hr by trypan blue exclusion assay relative to control; type: functional; settings: read-out: Activity
[6] = tested on: RD; assay: Cytotoxicity against Homo sapiens (human) RD cells assessed as cell viability at 10^-4 M after 24 hr by trypan blue exclusion assay relative to control; type: functional; settings: read-out: Activity
[7] = tested on: RD; assay: Cytotoxicity against Homo sapiens (human) RD cells assessed as cell viability at 10^-4 M after 72 hr by trypan blue exclusion assay relative to control; type: functional; settings: read-out: Activity
[8] = Cytotoxicity against Homo sapiens (human) FL cells assessed as cell viability at 10^-4 M after 72 hr by trypan blue exclusion assay relative to control; type: cell-based; settings: read-out: Activity
[9] = tested on: A2058; assay: Cytotoxicity against Homo sapiens (human) A2058 cells assessed as cell viability at 10^-4 M after 24 hr by trypan blue exclusion assay relative to control; type: functional; settings: A2058, 24 h, read-out: Activity
[10] = Cytotoxicity against Homo sapiens (human) FL cells assessed as cell viability at 10^-4 M after 48 hr by trypan blue exclusion assay relative to control; type: cell-based; settings: read-out: Activity
[11] = tested on: A2058; assay: Cytotoxicity against Homo sapiens (human) A2058 cells assessed as cell viability at 10^-4 M after 48 hr by trypan blue exclusion assay relative to control; type: functional; settings: A2058, 48 h, read-out: Activity
[12] = Cytotoxicity against Homo sapiens (human) FL cells assessed as cell viability at 10^-4 M after 96 hr by trypan blue exclusion assay relative to control; type: cell-based; settings: read-out: Activity

SMILES | viability at 24 h, 100 µM [1] | viability at 100 µM [2] | viability at 100 µM [3] | viability at 100 µM [4] | viability at 100 µM [5] | viability at 100 µM [6] | viability at 100 µM [7] | viability at 72 h, 100 µM [8] | viability at 100 µM [9] | viability at 48 h, 100 µM [10] | viability at 100 µM [11] | viability at 96 h, 100 µM [12]
CCOC(=O)N1c2ccccc2N(C(=O)OCC)C1CC(=O)/C=C/c1ccccc1 | 111% | 7.14% | 59.1% | 8.14% | 39.4% | 45.5% | 52.9% | 83.6% | 14.7% | 77.9% | 12.1% | 81.1%
CCOC(=O)N1c2ccccc2N(C(=O)OCC)C1CC(C)=O | 0% | 0% | 0% | 0% | 0% | 0% | 0% | 0% | 0% | 0% | 0% | 0%
CCOC(=O)N1c2cc(C)c(C)cc2N(C(=O)OCC)C1CC(C)=O | 111% | 70.4% | 40.9% | 69.8% | 17.9% | 31.2% | 24.3% | 15.4% | 82.3% | 31.2% | 57.6% | 39.4%
CCOC(=O)N1c2ccccc2N(C(=O)OCC)C1CC(=O)c1ccccc1 | 75.7% | 65.3% | 93.2% | 53.5% | 88.1% | 86.4% | 92.9% | 74.5% | 94.1% | 83.1% | 106% | 77.3%
CCOC(=O)N1c2cc(C)c(C)cc2N(C(=O)OCC)C1CC(=O)c1ccccc1 | 67.6% | 31.6% | 52.3% | 50% | 32.1% | 45.5% | 47.1% | 60% | 97.1% | 46.8% | 83.3% | 62.1%
CCOC(=O)N1c2ccccc2N(C(=O)OCC)C1CC(=O)c1ccc(O)cc1 | 29.7% | 6.12% | 13.6% | 9.3% | 3.57% | 27.3% | 5.71% | 7.27% | 35.3% | 11.7% | 12.1% | 4.55%
CCOC(=O)N1c2cc(C)c(C)cc2N(C(=O)OCC)C1CC(=O)c1ccc(OC)cc1 | 75.7% | 33.7% | 43.2% | 38.4% | 57.1% | 31.2% | 58.6% | 63.6% | 55.9% | 49.4% | 54.5% | 65.9%
CCOC(=O)N1c2ccccc2N(C(=O)OCC)C1CC(=O)Cc1ccccc1 | 27% | 6.12% | 31.8% | 11.6% | 11.9% | 63.6% | 14.3% | 5.45% | 41.2% | 10.4% | 21.2% | 3.03%
CCOC(=O)N1c2cc(C)c(C)cc2N(C(=O)OCC)C1CC(=O)/C=C/c1ccccc1 | 94.6% | 75.5% | 70.5% | 80.2% | 79.8% | 86.4% | 81.4% | 60% | 82.3% | 67.5% | 86.4% | 74.2%
